{
  "source": "patent US10307403B2",
  "about": "“Polymorphic forms and process” (GALECTO BIOTECH AB, priority 2015, dated 2019)",
  "format_in_all_cases": "physicochemical",
  "key": {"[1]": {"assay": "Aerodynamic particle size determination (APSD) via New Generation Impactor (NGI)", "settings": "20 mg in size 3 HPMC capsule, Plastiape Monodose inhaler", "method": "To compare in vitro performance of the different forms for use in inhalation products, an aerodynamic particle size determination (APSD) was performed via New Generation Impactor (NGI) for Form 5 material produced via microfluidization and the amorphous form produced via spray drying. These were compared with the APSD obtained from micronized Form 1 material. For each APSD test, 20 mg 3,3′-Dideoxy-3,3′-bis-[4-(3-fluorophenyl)-1H-1,2,3-triazol-1-yl]-1,1′-sulfanediyl-di-β-D-galactopyranoside was filled into a size 3 HPMC capsule and actuated using a Plastiape Monodose inhaler device."}, "[2]": {"assay": "Solid form stability and moisture uptake"}, "[3]": {"assay": "Stability of micronized Form 1 under ICH conditions", "text": "There is no increase in impurities and both the particle size and crystalline form remain unchanged."}, "[4]": {"settings": "listed as Amorphous (Spray Drying)"}, "[5]": {"settings": "listed as Form 5 (microfluidization)"}},
  "data": [
    {"smiles": "OCC1O[C@@H](SC2O[C@H](CO)C(O)C(n3cc(-c4cccc(F)c4)nn3)[C@H]2O)C(O)C(n2cc(-c3cccc(F)c3)nn2)[C@H]1O", "note": "(stereo partly drawn) [Amorphous, 3,3′-Dideoxy-3,3′-bis-[4-(3-fluorophenyl)-1H-1,2,3-triazol-1-yl]-1,1′-sulfanediyl-di-β-D-galactopyranoside]", "values": [
      {"measurement": "Mean Mass Aerodynamic Diameter (MMAD)", "setting": "[1]", "result": "in the respirable range"},
      {"measurement": "Fine Particle Dose (FPD)", "setting": "[1]; [4]", "result": 11.8, "unit": "mg"},
      {"measurement": "Fine Particle Fraction (FPF)", "setting": "[1]; [4]", "result": 91, "unit": "%"},
      {"measurement": "Mean Mass Aerodynamic Diameter (MMAD)", "setting": "[1]; [4]", "result": 1.7, "unit": "μm"}
    ]},
    {"smiles": "OC[C@H]1O[C@@H](S[C@@H]2O[C@H](CO)[C@H](O)[C@H](n3cc(-c4cccc(F)c4)nn3)[C@H]2O)[C@H](O)[C@@H](n2cc(-c3cccc(F)c3)nn2)[C@H]1O", "note": "[Form 1, 3,3′-Dideoxy-3,3′-bis-[4-(3-fluorophenyl)-1H-1,2,3-triazol-1-yl]-1,1′-sulfanediyl-di-β-D-galactopyranoside]", "values": [
      {"measurement": "Stability of the solid form (in words)", "setting": "[2]", "result": "stable and does not convert to the other forms over time"},
      {"measurement": "Equilibrium water content after moisture pick-up", "setting": "[2]; dried upon synthesis, then picks up moisture", "result": "3-5%"},
      {"measurement": "Appearance", "setting": "[3]; 6 Months @ 40° C./75 RH", "result": "Conforms"},
      {"measurement": "Assay", "setting": "[3]; 6 Months @ 40° C./75 RH", "result": 97.2, "unit": "%"},
      {"measurement": "Particle Size D10", "setting": "[3]; 6 Months @ 40° C./75 RH", "result": 0.50, "unit": "μm"},
      {"measurement": "Particle Size D50", "setting": "[3]; 6 Months @ 40° C./75 RH", "result": 1.97, "unit": "μm"},
      {"measurement": "Particle Size D90", "setting": "[3]; 6 Months @ 40° C./75 RH", "result": 4.68, "unit": "μm"},
      {"measurement": "Polymorphism (crystalline form found)", "setting": "[3]; 6 Months @ 40° C./75 RH", "result": "Form 1"},
      {"measurement": "Specified impurity DEX-IMP-284-B", "setting": "[3]; 6 Months @ 40° C./75 RH", "result": 0.89, "unit": "%"},
      {"measurement": "Specified impurity DEX-IMP-284-C", "setting": "[3]; 6 Months @ 40° C./75 RH", "result": 0.05, "unit": "%"},
      {"measurement": "Total Impurities", "setting": "[3]; 6 Months @ 40° C./75 RH", "result": 1.57, "unit": "%"},
      {"measurement": "Unspecified impurity 0.922RRT", "setting": "[3]; 6 Months @ 40° C./75 RH", "result": 0.12, "unit": "%"},
      {"measurement": "Unspecified impurity 1.057RRT", "setting": "[3]; 6 Months @ 40° C./75 RH", "result": 0.11, "unit": "%"},
      {"measurement": "Unspecified impurity 1.184RRT", "setting": "[3]; 6 Months @ 40° C./75 RH", "result": 0.34, "unit": "%"},
      {"measurement": "Water Content", "setting": "[3]; 6 Months @ 40° C./75 RH", "result": 5.2, "unit": "%"},
      {"measurement": "Appearance", "setting": "[3]; 12 Months 25° C./60 RH", "result": "Conforms"},
      {"measurement": "Assay", "setting": "[3]; 12 Months 25° C./60 RH", "result": 97.7, "unit": "%"},
      {"measurement": "Particle Size D10", "setting": "[3]; 12 Months 25° C./60 RH", "result": 0.51, "unit": "μm"},
      {"measurement": "Particle Size D50", "setting": "[3]; 12 Months 25° C./60 RH", "result": 1.84, "unit": "μm"},
      {"measurement": "Particle Size D90", "setting": "[3]; 12 Months 25° C./60 RH", "result": 4.29, "unit": "μm"},
      {"measurement": "Polymorphism (crystalline form found)", "setting": "[3]; 12 Months 25° C./60 RH", "result": "Form 1"},
      {"measurement": "Specified impurity DEX-IMP-284-B", "setting": "[3]; 12 Months 25° C./60 RH", "result": 0.89, "unit": "%"},
      {"measurement": "Specified impurity DEX-IMP-284-C", "setting": "[3]; 12 Months 25° C./60 RH", "result": 0.04, "unit": "%"},
      {"measurement": "Total Impurities", "setting": "[3]; 12 Months 25° C./60 RH", "result": 1.54, "unit": "%"},
      {"measurement": "Unspecified impurity 0.922RRT", "setting": "[3]; 12 Months 25° C./60 RH", "result": 0.12, "unit": "%"},
      {"measurement": "Unspecified impurity 1.057RRT", "setting": "[3]; 12 Months 25° C./60 RH", "result": 0.10, "unit": "%"},
      {"measurement": "Unspecified impurity 1.184RRT", "setting": "[3]; 12 Months 25° C./60 RH", "result": 0.34, "unit": "%"},
      {"measurement": "Water Content", "setting": "[3]; 12 Months 25° C./60 RH", "result": 4.4, "unit": "%"},
      {"measurement": "Overall stability conclusion (in words)", "setting": "[3]; ICH conditions, Table 3A", "result": "stable both chemically and physically"},
      {"measurement": "Particle Size D10", "setting": "[3]; Initial", "result": 0.56, "unit": "μm"},
      {"measurement": "Polymorphism (crystalline form found)", "setting": "[3]; Initial", "result": "Form 1"},
      {"measurement": "Unspecified impurity 1.057RRT", "setting": "[3]; Initial", "result": 0.08, "unit": "%"},
      {"measurement": "Unspecified impurity 1.184RRT", "setting": "[3]; Initial", "result": 0.34, "unit": "%"},
      {"measurement": "Water Content", "setting": "[3]; Initial", "result": 4.2, "unit": "%"},
      {"measurement": "Assay", "setting": "[3]; Initial, criterion 95.0-105.0% w/w", "result": 97.9, "unit": "%"},
      {"measurement": "Appearance", "setting": "[3]; Initial, criterion white to off-white solid", "result": "Conforms"},
      {"measurement": "Specified impurity DEX-IMP-284-B", "setting": "[3]; Initial, criterion ≤1% (a/a)", "result": 0.90, "unit": "%"},
      {"measurement": "Specified impurity DEX-IMP-284-C", "setting": "[3]; Initial, criterion ≤1% (a/a)", "result": 0.03, "unit": "%"},
      {"measurement": "Unspecified impurity 0.922RRT", "setting": "[3]; Initial, criterion ≤1% each (a/a)", "result": 0.12, "unit": "%"},
      {"measurement": "Total Impurities", "setting": "[3]; Initial, criterion ≤2.5% (a/a)", "result": 1.54, "unit": "%"},
      {"measurement": "Particle Size D50", "setting": "[3]; Initial, target D50 ~2 μm", "result": 2.37, "unit": "μm"},
      {"measurement": "Particle Size D90", "setting": "[3]; Initial, target D90 ≤5 μm", "result": 5.09, "unit": "μm"},
      {"measurement": "Mean Mass Aerodynamic Diameter (MMAD)", "setting": "[1]", "result": "in the respirable range"},
      {"measurement": "Fine Particle Dose (FPD)", "setting": "[1]; listed as Form 1 (micronized)", "result": 7.4, "unit": "mg"},
      {"measurement": "Fine Particle Fraction (FPF)", "setting": "[1]; listed as Form 1 (micronized)", "result": 77, "unit": "%"},
      {"measurement": "Mean Mass Aerodynamic Diameter (MMAD)", "setting": "[1]; listed as Form 1 (micronized)", "result": 2.6, "unit": "μm"}
    ]},
    {"smiles": "OCC1O[C@@H](SC2O[C@H](CO)C(O)C(n3cc(-c4cccc(F)c4)nn3)[C@H]2O)C(O)C(n2cc(-c3cccc(F)c3)nn2)[C@H]1O", "note": "(stereo partly drawn) [Form 5, 3,3′-Dideoxy-3,3′-bis-[4-(3-fluorophenyl)-1H-1,2,3-triazol-1-yl]-1,1′-sulfanediyl-di-β-D-galactopyranoside]", "values": [
      {"measurement": "Stability of the solid form (in words)", "setting": "[2]", "result": "stable"},
      {"measurement": "Mean Mass Aerodynamic Diameter (MMAD)", "setting": "[1]", "result": "in the respirable range"},
      {"measurement": "Fine Particle Dose (FPD)", "setting": "[1]; [5]", "result": 7.7, "unit": "mg"},
      {"measurement": "Fine Particle Fraction (FPF)", "setting": "[1]; [5]", "result": 63, "unit": "%"},
      {"measurement": "Mean Mass Aerodynamic Diameter (MMAD)", "setting": "[1]; [5]", "result": 2.3, "unit": "μm"}
    ]}
  ]
}
